Results from publication PMC7897990, “TriTOX: A novel Trichomonas vaginalis assay platform for high-throughput screening of compound libraries” (International Journal for Parasitology: Drugs and Drug …, 2021).
Read-outs that look alike come from different tables or passages of the source. Non-standard residues stand in square brackets, D forms with d. Residues, ends and D or L forms follow the SMILES beside them. aIle = CC[C@@H](C)[C@H](N)C(=O)O

Assays:
[1] = tested on: Trichomonas vaginalis G3 trophozoites; test: microbe, parasite or virus in culture; conditions: 48 h
[2] = tested on: Trichomonas vaginalis G3 trophozoites
[3] = read-out: T.vaginalis_%inb_Rep1
[4] = read-out: T.vaginalis_%inb_Rep2
[5] = HTS, parasite screen at 1 µg/mL, replicate 1, raw absorbance
[6] = HTS, parasite screen at 1 µg/mL, replicate 2, raw absorbance

SMILES | inhibition of growth at 1 µg/mL [1, 3] [%] | inhibition of growth at 1 µg/mL [1, 4] [%] | T.vaginalis_Absorbance_Rep1 [2, 5] | T.vaginalis_Absorbance_Rep2 [2, 6] | T.vaginalis_Absorbance_Rep1 [2] | T.vaginalis_Absorbance_Rep2 [2]
CC[C@@H](C)[C@@H]1NC(=O)[C@@H](CC(C)C)NC(=O)[C@H](CC(C)C)NC(=O)[C@H](Cc2c[nH]c3ccccc23)NC(=O)CNC(=O)[C@H](CC(N)=O)NC1=O [Desotamide] (cyclo(GWL[dL][aIle]N)) | 15 | 4.99 | 0.987 | 0.689 | – | –
O=C(O)c1cccc(C(=O)O)n1 [Dipicolinic acid] | 13.9 | 2.6 | – | – | 0.967 | 0.656
CC[C@H]1OC(=O)[C@H](C)[C@@H](O[C@H]2C[C@@](C)(OC)[C@@H](O)[C@H](C)O2)[C@H](C)[C@@H](O[C@@H]2O[C@H](C)C[C@H](N(C)C)[C@H]2O)[C@](C)(O)C[C@@H](C)[C@@H]2N[C@@H](COCCOC)O[C@H]([C@H]2C)[C@]1(C)O [Dirithromycin] | 8.51 | 2.24 | 0.867 | 0.651 | – | –
C[C@@H](O)[C@H]1C(=O)N2C(C(=O)O)=C(S[C@@H]3CN[C@H](CNS(N)(=O)=O)C3)[C@H](C)[C@H]12 [Doripenem] | 15.6 | 15.6 | 0.999 | – | – | –
COc1cccc2c1C(=O)c1c(O)c3c(c(O)c1C2=O)C[C@@](O)(C(=O)CO)C[C@@H]3O[C@H]1C[C@H](N)[C@H](O)[C@H](C)O1 [Doxorubicin] | 13.5 | 3.11 | 0.959 | 0.663 | – | –
C[C@H]1c2cccc(O)c2C(=O)C2=C(O)[C@]3(O)C(=O)C(C(N)=O)=C(O)[C@@H](N(C)C)[C@@H]3[C@@H](O)[C@@H]21 [Doxycycline] | 9.15 | 1.95 | 0.879 | 0.647 | – | –
CC[C@H]1OC(=O)C[C@@H](O)[C@H](C)[C@@H](O[C@@H]2O[C@H](C)[C@@H](O[C@H]3C[C@@](C)(O)[C@@H](O)[C@H](C)O3)[C@H](N(C)C)[C@H]2O)[C@@H](CC=O)C[C@@H](C)C(=O)/C=C/C(C)=C/[C@@H]1CO[C@@H]1O[C@H](C)[C@@H](O)[C@@H](OC)[C@H]1OC [Tylosin] | 9.02 | 5.48 | – | – | – | –
O=C(O)/C=C/c1c[nH]cn1 [Urocanic acid] | 8.39 | 13.2 | – | – | – | –
C[C@H]1[C@H](C)CC[C@]2(C(=O)O)CC[C@]3(C)C(=CC[C@@H]4[C@@]5(C)CC[C@H](O)C(C)(C)[C@@H]5CC[C@]43C)[C@H]12 [Ursolic acid] | 7.39 | 10.4 | – | – | – | –
CC(=O)c1c(O)c(C)c(O)c2c1OC1=CC(=O)C(C(C)=O)C(=O)C12C (stereo not drawn) [Usnic acid] | 8.76 | 13.7 | – | – | – | –
C=C[C@]1(C)C[C@@H](OC(=O)CSC(C)(C)CNC(=O)[C@H](N)C(C)C)[C@]2(C)[C@H](C)CC[C@]3(CCC(=O)[C@H]32)[C@@H](C)[C@@H]1O [Valnemulin] | 8.39 | 8.96 | – | – | – | –
C=CC(C)(C)[C@@]12C[C@H]3C(=O)N[C@H](CC(C)C)C(=O)N3[C@H]1N(C(C)=O)c1ccccc12 [Verrucofortine] | 7.92 | 9.69 | – | – | – | –
O=C1NC(c2c[nH]c3ccc(O)cc23)=C/C1=C1\C(=O)Nc2ccccc21 [Violacein] | 11.2 | 11.8 | – | – | – | –
CO[C@H]1C[C@@H]2CC[C@@H](C)[C@@](O)(O2)C(=O)C(=O)N2CCCC[C@H]2C(=O)O[C@H]([C@H](C)C[C@@H]2CC[C@H](n3cnnn3)[C@H](OC)C2)CC(=O)[C@H](C)/C=C(\C)[C@@H](O)[C@@H](OC)C(=O)[C@H](C)C[C@H](C)/C=C/C=C/C=C/1C [Zotarolimus] | 10.4 | 6.09 | – | – | – | –
